The text below walks through data of ChEMBL document CHEMBL5335792, “Chemical exploration of TGR5 functional hot-spots: Synthesis and structure-activity relationships of C7- and C23-Substituted cholic acid derivatives” (Eur J Med Chem, 2023).

The nature of this data set: physchem. The following applies: 0.15 M sodium salt.

In the case of `C[C@H](CCC(=O)O)[C@H]1CC[C@H]2[C@@H]3[C@H](O)C[C@@H]4C[C@H](O)CC[C@]4(C)[C@H]3C[C@H](O)[C@]12C` [CHOLIC ACID], the solubility (usually how much of the substance goes into solution per volume) was 12 mM.
